Experimental data as given in ChEMBL document CHEMBL1201862, “PubChem BioAssay data set” (2004).
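The compound was tested at five concentrations on cells cultured in 96-well plates, with a 48-hour exposure period. The concentration for 50% growth inhibition is given as GI50.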 Active and inactive are the calls of the source. Cut-off read from the data, not from the text of the source: active = GI50 up to about 1.1 µM and inactive = higher.

Experiments:
Assay in all cases: inhibition of tumour cell growth, NCI panel, 48 h
A549 = test system: A549
BT-549 = test system: BT-549
COLO 205 = test system: COLO 205
HCC 2998 = test system: HCC 2998
HCT-116 = test system: HCT-116
HOP-92 = test system: HOP-92
Hs-578T = test system: Hs-578T
M14 = test system: M14
MDA-MB-231 = test system: MDA-MB-231
NCI-H23 = test system: NCI-H23
NCI-H460 = test system: NCI-H460
OVCAR-3 = test system: OVCAR-3
PC-3 = test system: PC-3
SF-539 = test system: SF-539
SNB-19 = test system: SNB-19
SNB-75 = test system: SNB-75
SW-620 = test system: SW-620
UACC-62 = test system: UACC-62
UO-31 = test system: UO-31
HL-60 = test system: HL-60

Measured: GI50

CSc1c(C)[n+]([O-])c2cc(Cl)c(Cl)cc2[n+]1[O-]
inactive: A549 > 100 µM | BT-549 18.3 µM | COLO 205 15.5 µM | HCC 2998 18.8 µM | HCT-116 16.4 µM | HOP-92 16.2 µM | Hs-578T 24.2 µM | M14 19.8 µM | MDA-MB-231 20.2 µM | NCI-H23 16.2 µM | NCI-H460 37.9 µM | OVCAR-3 11.5 µM | PC-3 18.6 µM | SF-539 44.8 µM | SNB-19 > 86.9 µM | SNB-75 > 47.1 µM | SW-620 16.8 µM | UACC-62 14.9 µM | UO-31 16.3 µM

CCOC(=O)c1c(NC(=O)c2ccc(OC)cc2)sc2c1CCCC2
inactive: A549 > 100 µM | BT-549 > 100 µM | COLO 205 > 100 µM | HCT-116 > 100 µM | HL-60 2.25 µM | Hs-578T > 100 µM | M14 > 100 µM | MDA-MB-231 > 100 µM | NCI-H23 > 100 µM | NCI-H460 > 100 µM | OVCAR-3 > 100 µM | PC-3 > 100 µM | SF-539 > 100 µM | SNB-19 > 100 µM | SW-620 > 100 µM | UACC-62 > 100 µM | UO-31 > 100 µM

Cc1cn([C@H]2C[C@@H](N3C(=O)c4ccccc4C3=O)[C@@H](CO[Si](C)(C)C(C)(C)C)O2)c(=O)[nH]c1=O
inactive: A549 85.5 µM | BT-549 > 100 µM | COLO 205 > 100 µM | HCC 2998 > 100 µM | HCT-116 49.2 µM | HOP-92 48.6 µM | Hs-578T 21.2 µM | M14 > 100 µM | MDA-MB-231 70.3 µM | NCI-H23 31.6 µM | NCI-H460 > 100 µM | OVCAR-3 > 100 µM | PC-3 > 100 µM | SF-539 27.5 µM | SNB-19 29.3 µM | SNB-75 24 µM | SW-620 > 100 µM | UACC-62 23.8 µM | UO-31 52.5 µM

CC(=O)OCC1OC(SC2=N/C(=C\c3ccc(Br)s3)C(=O)N2CN2CCOCC2)C(OC(C)=O)C(OC(C)=O)C1OC(C)=O (stereo not given)
inactive: BT-549 14.9 µM | COLO 205 18.8 µM | HCC 2998 19.8 µM | HCT-116 13.9 µM | HL-60 3.77 µM | Hs-578T 19.5 µM | MDA-MB-231 26.7 µM | NCI-H23 12.7 µM | NCI-H460 18.6 µM | OVCAR-3 > 10 µM | PC-3 23 µM | SNB-19 19.9 µM | SNB-75 25.4 µM | SW-620 14.9 µM | UACC-62 15.4 µM | UO-31 15.5 µM

O=Cc1cccc2c1Oc1c(cccc1C(=O)O)S2
inactive: A549 23.6 µM | BT-549 > 100 µM | COLO 205 23.2 µM | HCC 2998 57.4 µM | HCT-116 28.2 µM | HOP-92 70.8 µM | Hs-578T 65.9 µM | M14 > 100 µM | MDA-MB-231 > 100 µM | NCI-H23 > 100 µM | NCI-H460 50.4 µM | OVCAR-3 33.3 µM | PC-3 > 100 µM | SF-539 38.9 µM | SNB-19 87.7 µM | SNB-75 78.7 µM | SW-620 > 100 µM | UACC-62 > 100 µM | UO-31 58.3 µM

CCOC(=O)c1cc(C2(O)CCN(Cc3ccccc3)C2=O)c(-c2cc(C)no2)[nH]1 (stereo not given)
inactive: A549 40.1 µM | BT-549 66.2 µM | COLO 205 56.8 µM | HCC 2998 92.9 µM | HCT-116 37.9 µM | HL-60 15.3 µM | Hs-578T 34 µM | M14 55 µM | MDA-MB-231 29 µM | NCI-H23 73.3 µM | NCI-H460 32.4 µM | OVCAR-3 36.5 µM | PC-3 42.4 µM | SF-539 89.7 µM | SNB-19 81.1 µM | SNB-75 26.6 µM | SW-620 47.1 µM | UACC-62 47.8 µM | UO-31 32.1 µM

COc1ccc(CNc2cc(=O)n(C)c(=O)[nH]2)cc1
inactive: A549 > 100 µM | BT-549 > 100 µM | COLO 205 > 100 µM | HCC 2998 > 100 µM | HCT-116 > 100 µM | HOP-92 > 100 µM | Hs-578T > 100 µM | M14 > 100 µM | MDA-MB-231 > 100 µM | NCI-H23 > 100 µM | NCI-H460 > 100 µM | OVCAR-3 > 100 µM | PC-3 > 100 µM | SF-539 > 100 µM | SNB-19 > 100 µM | SNB-75 33.3 µM | SW-620 > 100 µM | UACC-62 > 100 µM | UO-31 > 100 µM

O=C(/C=C/c1ccc(O)c(O)c1)OCCc1ccc2ccccc2c1
inactive: A549 9.35 µM | BT-549 2.91 µM | COLO 205 4.59 µM | HCC 2998 17 µM | HCT-116 5.24 µM | HOP-92 6.35 µM | Hs-578T 4.79 µM | M14 4.95 µM | MDA-MB-231 10.6 µM | NCI-H23 3.42 µM | NCI-H460 7.05 µM | OVCAR-3 3.26 µM | PC-3 7.55 µM | SF-539 5.83 µM | SNB-19 12.8 µM | SNB-75 1.87 µM | SW-620 6.93 µM | UACC-62 3.69 µM | UO-31 3.19 µM

S=C1CSc2c(ccc3ccccc23)N1
inactive: A549 67.1 µM | BT-549 > 100 µM | COLO 205 > 100 µM | HCT-116 > 100 µM | HL-60 > 100 µM | Hs-578T 51.4 µM | M14 > 100 µM | MDA-MB-231 > 100 µM | NCI-H23 > 100 µM | NCI-H460 > 100 µM | OVCAR-3 > 100 µM | PC-3 > 100 µM | SNB-19 > 100 µM | SNB-75 > 100 µM | UACC-62 > 100 µM | UO-31 > 100 µM

COc1ccc(/N=N/C(=N\c2ccccc2)c2ccc(N(CCC#N)CCC#N)cc2)cc1
inactive: A549 49.2 µM | BT-549 47.6 µM | COLO 205 14.1 µM | HCC 2998 33.2 µM | HCT-116 43.4 µM | HOP-92 > 100 µM | Hs-578T 45.8 µM | M14 69.8 µM | MDA-MB-231 22.9 µM | NCI-H23 51.4 µM | NCI-H460 36.5 µM | OVCAR-3 18 µM | PC-3 40.6 µM | SF-539 28 µM | SNB-19 > 100 µM | SNB-75 38.3 µM | SW-620 > 100 µM | UACC-62 51.5 µM | UO-31 80.9 µM

CN(C)CCCn1cnc2cc(Cl)c(Cl)cc21
inactive: A549 > 100 µM | BT-549 66.7 µM | COLO 205 79.3 µM | HCC 2998 22 µM | HCT-116 48 µM | HL-60 > 100 µM | Hs-578T > 100 µM | M14 16.6 µM | MDA-MB-231 > 100 µM | NCI-H23 > 100 µM | NCI-H460 91.8 µM | OVCAR-3 > 100 µM | PC-3 > 100 µM | SNB-19 > 100 µM | SNB-75 33.1 µM | SW-620 > 100 µM | UACC-62 27.7 µM | UO-31 70 µM
